Reference: PMC12586182 (Frontiers in Oncology, 2025)

What was measured:
Test in all cases: Kinase panel profiling at 1 µmol/L (mobility shift assay, Carna)
MAPKAPK5 = target: T1, MAPKAPK5 (Homo sapiens, UniProt Q8IW41); type: biochemical; conditions: 1 µmol/L of BTK inhibitor
T1 construct: purchased Carna Biosciences
T1 sequence (Q8IW41 1-473): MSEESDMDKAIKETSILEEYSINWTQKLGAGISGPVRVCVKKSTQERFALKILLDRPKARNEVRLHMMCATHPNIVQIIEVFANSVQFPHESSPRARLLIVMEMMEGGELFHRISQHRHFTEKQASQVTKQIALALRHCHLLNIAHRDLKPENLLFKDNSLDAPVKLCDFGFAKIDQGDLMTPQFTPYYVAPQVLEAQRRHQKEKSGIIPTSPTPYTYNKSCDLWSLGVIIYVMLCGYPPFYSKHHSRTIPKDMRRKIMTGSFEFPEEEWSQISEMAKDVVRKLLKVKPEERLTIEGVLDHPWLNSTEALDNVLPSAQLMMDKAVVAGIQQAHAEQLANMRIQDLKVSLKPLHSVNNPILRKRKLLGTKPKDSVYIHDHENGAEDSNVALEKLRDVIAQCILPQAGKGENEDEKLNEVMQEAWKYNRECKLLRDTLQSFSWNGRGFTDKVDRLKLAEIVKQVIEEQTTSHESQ

PDK1 = target: T2, PDK1 (Homo sapiens, UniProt O15530); type: biochemical; conditions: 1 µmol/L of BTK inhibitor
T2 construct: purchased Carna Biosciences
T2 sequence (O15530 1-556): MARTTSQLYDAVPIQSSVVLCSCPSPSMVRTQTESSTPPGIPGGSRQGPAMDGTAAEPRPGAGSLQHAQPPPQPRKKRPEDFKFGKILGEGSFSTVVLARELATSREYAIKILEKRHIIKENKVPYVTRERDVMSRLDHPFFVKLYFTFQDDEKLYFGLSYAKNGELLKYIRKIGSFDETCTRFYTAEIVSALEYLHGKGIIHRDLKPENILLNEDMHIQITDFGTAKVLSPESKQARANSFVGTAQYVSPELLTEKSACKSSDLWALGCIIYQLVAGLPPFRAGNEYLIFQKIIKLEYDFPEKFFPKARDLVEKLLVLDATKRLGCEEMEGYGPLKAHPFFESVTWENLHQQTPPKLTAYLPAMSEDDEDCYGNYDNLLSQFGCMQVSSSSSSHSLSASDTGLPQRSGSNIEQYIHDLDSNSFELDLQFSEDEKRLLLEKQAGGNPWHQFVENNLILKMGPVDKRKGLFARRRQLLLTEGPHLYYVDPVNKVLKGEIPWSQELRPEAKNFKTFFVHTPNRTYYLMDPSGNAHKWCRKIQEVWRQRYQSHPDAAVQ

EPHA4 = target: T3, EPHA4 (Homo sapiens, UniProt P54764); type: biochemical; conditions: 1 µmol/L of BTK inhibitor
T3 construct: purchased Carna Biosciences

CSK = CSK (Homo sapiens, UniProt P41240); conditions: for Percentage inhibition of kinase enzyme activity: CSK, 1 µmol/L of BTK inhibitor
CSK, sequence (P41240 whole entry): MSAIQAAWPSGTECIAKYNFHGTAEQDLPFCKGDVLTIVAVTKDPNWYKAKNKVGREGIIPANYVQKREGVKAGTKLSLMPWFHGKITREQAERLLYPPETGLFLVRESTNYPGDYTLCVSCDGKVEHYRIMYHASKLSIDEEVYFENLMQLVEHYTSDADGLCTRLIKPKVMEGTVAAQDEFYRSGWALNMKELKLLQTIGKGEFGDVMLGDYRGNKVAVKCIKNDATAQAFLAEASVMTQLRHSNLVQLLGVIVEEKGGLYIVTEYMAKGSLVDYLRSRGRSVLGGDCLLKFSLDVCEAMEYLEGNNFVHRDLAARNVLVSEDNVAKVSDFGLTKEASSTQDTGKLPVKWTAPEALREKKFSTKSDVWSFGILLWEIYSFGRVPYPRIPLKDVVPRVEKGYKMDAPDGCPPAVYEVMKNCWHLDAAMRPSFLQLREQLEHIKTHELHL

CDK6/CycD3 = target: T4, CDK6/CycD3 (Homo sapiens, UniProt Q00534); type: biochemical; conditions: 1 µmol/L of BTK inhibitor
T4 construct: purchased Carna Biosciences
T4 sequence (Q00534 whole entry): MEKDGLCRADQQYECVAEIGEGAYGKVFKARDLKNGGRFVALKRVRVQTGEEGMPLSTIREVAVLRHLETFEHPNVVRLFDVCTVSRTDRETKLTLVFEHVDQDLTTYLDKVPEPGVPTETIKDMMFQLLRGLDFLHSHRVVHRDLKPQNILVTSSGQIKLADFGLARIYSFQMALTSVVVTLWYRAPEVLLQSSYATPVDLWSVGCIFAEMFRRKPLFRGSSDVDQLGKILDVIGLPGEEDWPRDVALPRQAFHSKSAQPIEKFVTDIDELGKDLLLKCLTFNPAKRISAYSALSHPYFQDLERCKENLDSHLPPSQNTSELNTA
T4 sequence (P30281 whole entry partner): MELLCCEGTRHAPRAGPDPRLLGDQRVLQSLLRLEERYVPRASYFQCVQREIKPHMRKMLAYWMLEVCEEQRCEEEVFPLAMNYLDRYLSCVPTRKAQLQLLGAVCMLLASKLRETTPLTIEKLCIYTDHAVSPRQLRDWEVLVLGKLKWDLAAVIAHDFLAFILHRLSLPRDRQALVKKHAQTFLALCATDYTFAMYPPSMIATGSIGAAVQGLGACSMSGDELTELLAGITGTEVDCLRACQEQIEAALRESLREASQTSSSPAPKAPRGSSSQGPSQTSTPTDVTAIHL

IKKα = target: T5, IKKα (Homo sapiens, UniProt O15111); type: biochemical; conditions: 1 µmol/L of BTK inhibitor
T5 construct: purchased Carna Biosciences
T5 sequence (O15111 1-745): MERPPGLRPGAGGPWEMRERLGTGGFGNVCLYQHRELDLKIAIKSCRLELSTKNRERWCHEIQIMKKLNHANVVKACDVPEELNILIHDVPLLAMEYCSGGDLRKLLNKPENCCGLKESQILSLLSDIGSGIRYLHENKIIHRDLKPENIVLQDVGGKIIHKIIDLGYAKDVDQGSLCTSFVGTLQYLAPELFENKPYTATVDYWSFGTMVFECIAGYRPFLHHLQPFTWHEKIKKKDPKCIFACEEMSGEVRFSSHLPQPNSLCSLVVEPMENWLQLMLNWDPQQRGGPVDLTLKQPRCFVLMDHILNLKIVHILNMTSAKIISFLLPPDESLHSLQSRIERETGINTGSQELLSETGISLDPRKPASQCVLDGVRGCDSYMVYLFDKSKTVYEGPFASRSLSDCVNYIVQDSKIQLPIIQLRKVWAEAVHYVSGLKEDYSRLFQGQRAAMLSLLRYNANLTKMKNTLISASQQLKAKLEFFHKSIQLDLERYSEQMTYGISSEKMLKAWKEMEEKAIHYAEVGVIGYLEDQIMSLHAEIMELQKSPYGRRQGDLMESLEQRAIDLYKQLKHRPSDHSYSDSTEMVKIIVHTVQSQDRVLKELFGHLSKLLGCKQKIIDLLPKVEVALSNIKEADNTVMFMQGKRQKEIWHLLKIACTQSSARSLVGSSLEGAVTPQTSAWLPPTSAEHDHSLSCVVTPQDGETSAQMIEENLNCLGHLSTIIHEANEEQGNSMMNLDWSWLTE

IRR = target: T6, IRR (Homo sapiens, UniProt P14616); type: biochemical; conditions: 1 µmol/L of BTK inhibitor
T6 construct: purchased Carna Biosciences
T6 sequence (P14616 27-1297): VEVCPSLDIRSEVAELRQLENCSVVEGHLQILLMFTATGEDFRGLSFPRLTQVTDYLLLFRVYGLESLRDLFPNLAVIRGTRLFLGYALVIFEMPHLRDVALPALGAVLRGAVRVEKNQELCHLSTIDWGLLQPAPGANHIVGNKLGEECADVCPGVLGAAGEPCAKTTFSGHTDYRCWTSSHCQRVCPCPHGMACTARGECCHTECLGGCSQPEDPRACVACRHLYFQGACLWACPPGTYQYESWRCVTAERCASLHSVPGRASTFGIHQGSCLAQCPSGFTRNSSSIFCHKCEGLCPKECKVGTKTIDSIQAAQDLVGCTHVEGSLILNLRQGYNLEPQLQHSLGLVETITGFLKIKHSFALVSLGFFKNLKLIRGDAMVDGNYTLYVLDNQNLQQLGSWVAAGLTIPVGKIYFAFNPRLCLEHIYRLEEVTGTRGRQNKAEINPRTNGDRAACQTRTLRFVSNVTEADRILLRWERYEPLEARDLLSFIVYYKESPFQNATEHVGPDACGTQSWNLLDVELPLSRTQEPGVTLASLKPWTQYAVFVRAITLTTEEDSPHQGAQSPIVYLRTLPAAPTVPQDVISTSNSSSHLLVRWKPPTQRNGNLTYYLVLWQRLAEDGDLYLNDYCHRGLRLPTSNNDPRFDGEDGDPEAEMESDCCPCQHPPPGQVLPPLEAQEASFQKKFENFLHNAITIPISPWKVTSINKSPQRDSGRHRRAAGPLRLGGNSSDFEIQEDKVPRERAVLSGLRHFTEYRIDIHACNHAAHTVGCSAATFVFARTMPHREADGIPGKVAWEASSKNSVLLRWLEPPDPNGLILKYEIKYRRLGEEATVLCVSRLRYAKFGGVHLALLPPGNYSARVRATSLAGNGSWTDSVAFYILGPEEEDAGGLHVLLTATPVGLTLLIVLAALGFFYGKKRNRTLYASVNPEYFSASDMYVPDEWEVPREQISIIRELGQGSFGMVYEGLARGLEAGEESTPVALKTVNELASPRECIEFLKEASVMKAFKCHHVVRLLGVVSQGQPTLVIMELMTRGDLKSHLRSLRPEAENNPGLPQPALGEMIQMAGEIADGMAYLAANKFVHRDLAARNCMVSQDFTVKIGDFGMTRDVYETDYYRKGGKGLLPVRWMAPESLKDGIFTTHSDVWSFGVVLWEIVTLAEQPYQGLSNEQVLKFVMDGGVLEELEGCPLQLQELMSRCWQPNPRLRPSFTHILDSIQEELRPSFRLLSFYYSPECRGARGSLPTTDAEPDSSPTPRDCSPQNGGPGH

HIPK2 = target: T7, HIPK2 (Homo sapiens, UniProt Q9H2X6); type: biochemical; conditions: 1 µmol/L of BTK inhibitor
T7 construct: purchased Carna Biosciences

RSK1 = target: T8, RSK1 (Homo sapiens, UniProt Q15418); type: biochemical; conditions: 1 µmol/L of BTK inhibitor
T8 construct: purchased Carna Biosciences
T8 sequence (Q15418 whole entry): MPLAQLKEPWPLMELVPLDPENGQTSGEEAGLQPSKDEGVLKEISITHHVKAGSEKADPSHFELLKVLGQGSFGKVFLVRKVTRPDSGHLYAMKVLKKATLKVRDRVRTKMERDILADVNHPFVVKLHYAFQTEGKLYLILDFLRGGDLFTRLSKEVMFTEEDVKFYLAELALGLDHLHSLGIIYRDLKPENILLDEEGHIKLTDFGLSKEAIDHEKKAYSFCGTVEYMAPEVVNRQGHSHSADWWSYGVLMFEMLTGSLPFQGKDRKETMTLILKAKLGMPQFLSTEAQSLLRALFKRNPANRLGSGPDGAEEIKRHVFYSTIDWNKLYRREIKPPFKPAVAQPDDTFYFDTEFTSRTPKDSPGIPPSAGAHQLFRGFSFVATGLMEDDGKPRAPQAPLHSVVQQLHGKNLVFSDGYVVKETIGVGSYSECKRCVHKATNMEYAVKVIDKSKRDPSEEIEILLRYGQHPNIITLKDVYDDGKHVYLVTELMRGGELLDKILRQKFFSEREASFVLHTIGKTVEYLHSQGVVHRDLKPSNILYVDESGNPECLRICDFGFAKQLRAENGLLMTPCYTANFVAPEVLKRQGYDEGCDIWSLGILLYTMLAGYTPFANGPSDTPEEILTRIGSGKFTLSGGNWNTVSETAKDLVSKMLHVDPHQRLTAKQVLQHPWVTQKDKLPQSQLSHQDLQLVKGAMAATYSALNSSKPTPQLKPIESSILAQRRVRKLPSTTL

LOK = target: T9, LOK (Homo sapiens, UniProt O94804); type: biochemical; conditions: 1 µmol/L of BTK inhibitor
T9 construct: purchased Carna Biosciences

MELK = target: T10, MELK (Homo sapiens, UniProt Q14680); type: biochemical; conditions: 1 µmol/L of BTK inhibitor
T10 construct: purchased Carna Biosciences
T10 sequence (Q14680 whole entry): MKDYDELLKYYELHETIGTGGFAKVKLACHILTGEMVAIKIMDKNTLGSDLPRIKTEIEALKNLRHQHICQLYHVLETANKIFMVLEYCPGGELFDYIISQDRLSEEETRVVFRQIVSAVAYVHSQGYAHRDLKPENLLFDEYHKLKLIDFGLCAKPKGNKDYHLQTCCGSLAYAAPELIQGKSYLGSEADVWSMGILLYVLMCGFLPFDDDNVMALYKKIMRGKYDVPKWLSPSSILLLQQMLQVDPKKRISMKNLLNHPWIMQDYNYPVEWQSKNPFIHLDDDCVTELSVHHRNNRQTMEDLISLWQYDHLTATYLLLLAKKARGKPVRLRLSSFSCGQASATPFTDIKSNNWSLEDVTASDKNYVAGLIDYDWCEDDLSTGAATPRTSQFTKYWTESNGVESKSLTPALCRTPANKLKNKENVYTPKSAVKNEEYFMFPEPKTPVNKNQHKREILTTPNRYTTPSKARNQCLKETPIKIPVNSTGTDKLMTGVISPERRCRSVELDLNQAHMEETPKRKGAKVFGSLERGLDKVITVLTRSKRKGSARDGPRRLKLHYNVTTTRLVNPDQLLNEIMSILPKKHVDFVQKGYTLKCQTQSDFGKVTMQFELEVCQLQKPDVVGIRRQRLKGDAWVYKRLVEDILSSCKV

MAPKAPK3 = target: T11, MAPKAPK3 (Homo sapiens, UniProt Q16644); type: biochemical; conditions: 1 µmol/L of BTK inhibitor
T11 construct: purchased Carna Biosciences
T11 sequence (Q16644 whole entry): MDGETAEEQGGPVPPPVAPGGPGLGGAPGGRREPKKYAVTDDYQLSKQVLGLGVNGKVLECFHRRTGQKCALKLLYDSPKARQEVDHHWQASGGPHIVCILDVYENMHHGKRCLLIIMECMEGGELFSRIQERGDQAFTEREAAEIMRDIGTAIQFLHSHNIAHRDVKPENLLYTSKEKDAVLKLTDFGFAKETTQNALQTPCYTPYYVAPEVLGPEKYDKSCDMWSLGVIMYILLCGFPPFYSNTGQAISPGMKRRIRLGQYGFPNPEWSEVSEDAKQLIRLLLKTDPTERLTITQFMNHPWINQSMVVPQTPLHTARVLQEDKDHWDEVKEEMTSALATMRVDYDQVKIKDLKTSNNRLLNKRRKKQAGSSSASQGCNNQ

## O=C(c1ccc(Oc2ccccc2)cc1Cl)c1c[nH]c2ncnc(N[C@@H]3CC[C@@H](CO)OC3)c12 [nemtabrutinib]
MAPKAPK5
  Percentage inhibition of kinase enzyme activity: -2.46%
PDK1
  Percentage inhibition of kinase enzyme activity: 2.54%
EPHA4
  Percentage inhibition of kinase enzyme activity: 82.34%
CSK
  Percentage inhibition of kinase enzyme activity: 98.66%
CDK6/CycD3
  Percentage inhibition of kinase enzyme activity: 0.23%
IKKα
  Percentage inhibition of kinase enzyme activity: 1.80%
IRR
  Percentage inhibition of kinase enzyme activity: 77.13%
HIPK2
  Percentage inhibition of kinase enzyme activity: 3.26%
RSK1
  Percentage inhibition of kinase enzyme activity: 17.84%
LOK
  Percentage inhibition of kinase enzyme activity: 83.97%
MELK
  Percentage inhibition of kinase enzyme activity: 81.25%
MAPKAPK3
  Percentage inhibition of kinase enzyme activity: -15.88%

## CC#CC(=O)N1CCC[C@H]1c1nc(-c2ccc(C(=O)Nc3ccccn3)cc2)c2c(N)nccn12 [acalabrutinib]
MAPKAPK5
  Percentage inhibition of kinase enzyme activity: -1.87%
PDK1
  Percentage inhibition of kinase enzyme activity: -1.47%
EPHA4
  Percentage inhibition of kinase enzyme activity: -3.03%
CSK
  Percentage inhibition of kinase enzyme activity: 6.97%
CDK6/CycD3
  Percentage inhibition of kinase enzyme activity: 2.94%
IKKα
  Percentage inhibition of kinase enzyme activity: -1.45%
IRR
  Percentage inhibition of kinase enzyme activity: -0.87%
HIPK2
  Percentage inhibition of kinase enzyme activity: -11.44%
RSK1
  Percentage inhibition of kinase enzyme activity: 3.57%
LOK
  Percentage inhibition of kinase enzyme activity: 3.37%
MELK
  Percentage inhibition of kinase enzyme activity: -0.54%
MAPKAPK3
  Percentage inhibition of kinase enzyme activity: -11.15%

## COc1ccc(F)cc1C(=O)NCc1ccc(-c2nn([C@@H](C)C(F)(F)F)c(N)c2C(N)=O)cc1 [pirtobrutinib]
MAPKAPK5
  Percentage inhibition of kinase enzyme activity: -1.10%
PDK1
  Percentage inhibition of kinase enzyme activity: -1.19%
EPHA4
  Percentage inhibition of kinase enzyme activity: 9.50%
CSK
  Percentage inhibition of kinase enzyme activity: 79.14%
CSK; read-out: Inhibition of CSK
  inhibition at 1 µM: > 75%
CDK6/CycD3
  Percentage inhibition of kinase enzyme activity: -5.97%
IKKα
  Percentage inhibition of kinase enzyme activity: -16.22%
IRR
  Percentage inhibition of kinase enzyme activity: -6.47%
HIPK2
  Percentage inhibition of kinase enzyme activity: 0.19%
RSK1
  Percentage inhibition of kinase enzyme activity: 5.53%
LOK
  Percentage inhibition of kinase enzyme activity: -1.51%
MELK
  Percentage inhibition of kinase enzyme activity: -5.13%
MAPKAPK3
  Percentage inhibition of kinase enzyme activity: -18.63%

## C=CC(=O)N1CCC([C@@H]2CCNc3c(C(N)=O)c(-c4ccc(Oc5ccccc5)cc4)nn32)CC1 [zanubrutinib]
EPHA4
  Percentage inhibition of kinase enzyme activity: 0.04%
IKKα
  Percentage inhibition of kinase enzyme activity: -9.91%
IRR
  Percentage inhibition of kinase enzyme activity: 34.27%
MAPKAPK3
  Percentage inhibition of kinase enzyme activity: -12.22%

## C=CC(=O)N1CCC[C@@H](n2nc(-c3ccc(Oc4ccccc4)cc3)c3c(N)ncnc32)C1 [ibrutinib]
MAPKAPK5
  Percentage inhibition of kinase enzyme activity: -2.44%
PDK1
  Percentage inhibition of kinase enzyme activity: -2.01%
EPHA4
  Percentage inhibition of kinase enzyme activity: 12.63%
CDK6/CycD3
  Percentage inhibition of kinase enzyme activity: 4.32%
IKKα
  Percentage inhibition of kinase enzyme activity: 4.34%
IRR
  Percentage inhibition of kinase enzyme activity: 11.54%
HIPK2
  Percentage inhibition of kinase enzyme activity: 2.01%
RSK1
  Percentage inhibition of kinase enzyme activity: 5.47%
LOK
  Percentage inhibition of kinase enzyme activity: 24.15%
MELK
  Percentage inhibition of kinase enzyme activity: 8.08%
MAPKAPK3
  Percentage inhibition of kinase enzyme activity: -6.50%
